Earlier results in patent publication US7875460B2, “Method for determining the effectiveness of stabilized chlorine dioxide in a mouth rinse” (priority 2007, dated 2011).

How the values were obtained:
[1] = system: bacteria; conditions: exposures as short as 10 seconds
[2] = in vivo
[3] = system: Sprague-Dawley rats

## [O][Cl+][O-] [chlorine dioxide]
[1]
  reduction in bacteria: dramatic reduction in bacteria
[2]
  decrease in VSCs in expired mouth air: remarkable decrease in VSCs
[3]; 0, 2, 4, 6, 12 mg/kg/day (male) and 0, 2, 5, 8, 15 mg/kg/day (female) in drinking-water for 90 days
  effects on haematology, blood biochemistry, or organ weights: no toxicologically significant effects
[3]; drinking-water for 90 days
  target tissue identified: nasal cavity findings: increased incidence of goblet cell hyperplasia, squamous metaplasia, and inflammatory responses
[3]; exposures as high as 11.5 mg/kg/day (male) and 14.9 mg/kg/day (female)
  deaths: no deaths were reported
